The text below walks through data of patent US20240376090A1, “ISOXAZOLE DERIVATIVES AS MODULATORS OF THE 5-HT2A SEROTONIN RECEPTOR USEFUL FOR THE TREATMENT OF DISORDERED RELATED THERETO” (Arena Pharmaceuticals, Inc., priority 2020, published 2024).

pKi: −log10 of the molar value.

5-HT2A receptor, sequence (P28223 whole entry): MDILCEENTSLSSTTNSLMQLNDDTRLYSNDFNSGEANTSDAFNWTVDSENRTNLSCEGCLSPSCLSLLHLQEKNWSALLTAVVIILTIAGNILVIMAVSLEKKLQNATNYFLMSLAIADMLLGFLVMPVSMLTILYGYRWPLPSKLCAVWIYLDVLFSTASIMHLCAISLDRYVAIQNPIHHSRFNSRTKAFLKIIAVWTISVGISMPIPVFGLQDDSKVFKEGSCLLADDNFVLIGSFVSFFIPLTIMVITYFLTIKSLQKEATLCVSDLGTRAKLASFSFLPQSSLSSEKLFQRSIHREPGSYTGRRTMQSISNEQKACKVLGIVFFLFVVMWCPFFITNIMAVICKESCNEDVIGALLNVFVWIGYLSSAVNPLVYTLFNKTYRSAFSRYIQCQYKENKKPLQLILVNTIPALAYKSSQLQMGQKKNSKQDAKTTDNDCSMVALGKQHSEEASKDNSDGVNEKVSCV

The experiment addresses 5-HT2A receptor (Homo sapiens (Human), UniProt P28223). Put plainly: Radioligand binding assay ([3H]5-HT competition), 5-HT2A. Particulars: [3H]5-HT radioligand, membranes of HEK293 cells expressing recombinant 5-HT2A; Ki from IC50 by Cheng-Prusoff; read-out: 5-HT2A serotonin binding Ki value. Here is the method: Competition binding experiments consisted of addition of 5 μL of serially diluted test compound, 50 μL of radioligand stock diluted in Assay Buffer (20 mM HEPES, pH 7.4, 10 mM MgCl2), and 145 μL of diluted membrane expressing the receptor of interest to 96-well microtiter plates, which were then incubated for one hour at room temperature. Assay incubations were terminated by rapid filtration through Perkin Elmer GF/C filtration plates under vacuum pressure using a 96-well Packard filtration apparatus, followed by washing the filter plates several times with ice cold Assay Buffer. Plates were then dried at 45° C. for a minimum of four hours. Finally, 25 μL of BetaScint scintillation cocktail was added to each well and the plates were counted in a Packard TopCount scintillation counter. In each competition study, test compounds were assayed at 10 concentrations with three replicates at each test concentration. Dose-response curves were constructed to determine IC50 values and these were converted to corresponding Ki values using the Cheng-Prusoff equation.
The term pKi denotes the negative decadic logarithm of the Ki, by convention in mol/L. On to `Cc1noc(C)c1-c1cc(NC(=O)C2CC2C2CC2)ccc1OCCN1CCCC1` (stereo not drawn) [Compound 100, N-(3-(3,5-dimethylisoxazol-4-yl)-4-(2-(pyrrolidin-1-yl)ethoxy)phenyl)-[1,1′-bi(cyclopropane)]-2-carboxamide], for which the pKi is 8.54.

As for `CCOCCC(=O)Nc1ccc(OCCN2CCCC2)c(-c2c(C)noc2C)c1` [Compound 101, N-(3-(3,5-dimethylisoxazol-4-yl)-4-(2-(pyrrolidin-1-yl)ethoxy)phenyl)-3-ethoxypropanamide], the negative-log Ki (pKi) was 7.11.

As for `Cc1noc(C)c1-c1cc(NC(=O)c2ccncc2)ccc1OCCN1CCCC1` [Compound 102, N-(3-(3,5-dimethylisoxazol-4-yl)-4-(2-(pyrrolidin-1-yl)ethoxy)phenyl)isonicotinamide], the pKi is 6.92.

As for `Cc1noc(C)c1-c1cc(NC(=O)c2ccncc2F)ccc1OCCN1CCCC1` [Compound 103, N-(3-(3,5-dimethylisoxazol-4-yl)-4-(2-(pyrrolidin-1-yl)ethoxy)phenyl)-3-fluoroisonicotinamide], the pKi was 7.29.

In the case of `Cc1noc(C)c1-c1cc(NC(=O)c2cc(F)ccn2)ccc1OCCN1CCCC1` [Compound 104, N-(3-(3,5-dimethylisoxazol-4-yl)-4-(2-(pyrrolidin-1-yl)ethoxy)phenyl)-4-fluoropicolinamide], the pKi was 7.71.

In the case of `Cc1noc(C)c1-c1cc(NC(=O)c2cc(Cl)ccn2)ccc1OCCN1CCCC1` [Compound 105, 4-chloro-N-(3-(3,5-dimethylisoxazol-4-yl)-4-(2-(pyrrolidin-1-yl)ethoxy)phenyl)picolinamide], the pKi is 8.40.

Consider `Cc1noc(C)c1-c1cc(NC(=O)[C@@H]2C[C@H]2F)ccc1OCCN1CCCC1` [Compound 106, (1S,2R)—N-[3-(3,5-dimethylisoxazol-4-yl)-4-(2-pyrrolidin-1-ylethoxy)phenyl]-2-fluoro-cyclopropanecarboxamide], for which the pKi is 8.95.

In the case of `Cc1noc(C)c1-c1cc(NC(=O)[C@H]2C[C@H]2F)ccc1OCCN1CCCC1` [Compound 107, (1R,2R)—N-(3-(3,5-dimethylisoxazol-4-yl)-4-(2-(pyrrolidin-1-yl)ethoxy)phenyl)-2-fluorocyclopropane-1-carboxamide], the pKi was 7.82.

Turning to `Cc1noc(C)c1-c1cc(NC(=O)[C@@H]2C[C@@H]2F)ccc1OCCN1CCCC1` [Compound 108, (1S,2S)—N-(3-(3,5-dimethylisoxazol-4-yl)-4-(2-(pyrrolidin-1-yl)ethoxy)phenyl)-2-fluorocyclopropane-1-carboxamide], the pKi is 8.21.

Consider `Cc1ncsc1C(=O)Nc1ccc(OCCN2CCCC2)c(-c2c(C)noc2C)c1` [Compound 109, N-(3-(3,5-dimethylisoxazol-4-yl)-4-(2-(pyrrolidin-1-yl)ethoxy)phenyl)-4-methylthiazole-5-carboxamide], for which the pKi is 8.42.

Take `Cc1nc(C)c(C(=O)Nc2ccc(OCCN3CCCC3)c(-c3c(C)noc3C)c2)s1` [Compound 110, N-(3-(3,5-dimethylisoxazol-4-yl)-4-(2-(pyrrolidin-1-yl)ethoxy)phenyl)-2,4-dimethylthiazole-5-carboxamide]: the pKi was 6.96.

As to `Cc1cnoc1C(=O)Nc1ccc(OCCN2CCCC2)c(-c2c(C)noc2C)c1` [Compound 111, N-(3-(3,5-dimethylisoxazol-4-yl)-4-(2-(pyrrolidin-1-yl)ethoxy)phenyl)-4-methylisoxazole-5-carboxamide], the negative-log Ki (pKi) was 7.62.

`Cc1ncoc1C(=O)Nc1ccc(OCCN2CCCC2)c(-c2c(C)noc2C)c1` [Compound 112, N-(3-(3,5-dimethylisoxazol-4-yl)-4-(2-(pyrrolidin-1-yl)ethoxy)phenyl)-4-methyloxazole-5-carboxamide]: the pKi is 7.85.

For the compound `CCOC1CC1C(=O)Nc1ccc(OCCN2CCCC2)c(-c2c(C)noc2C)c1` (stereo not drawn) [Compound 115, N-(3-(3,5-dimethylisoxazol-4-yl)-4-(2-(pyrrolidin-1-yl)ethoxy)phenyl)-2-ethoxycyclopropane-1-carboxamide], the negative-log Ki (pKi) was 8.07.

`Cc1noc(C)c1-c1cc(NC(=O)c2ccnn2C)ccc1OCCN1CCCC1` [Compound 116, N-[3-(3,5-dimethylisoxazol-4-yl)-4-(2-pyrrolidin-1-ylethoxy)phenyl]-2-methyl-pyrazole-3-carboxamide]: the pKi is 8.21.

As for `Cc1noc(C)c1-c1cc(NC(=O)c2ccnn2C)ccc1OCCN1CCC1` [Compound 118, N-(4-(2-(azetidin-1-yl)ethoxy)-3-(3,5-dimethylisoxazol-4-yl)phenyl)-1-methyl-1H-pyrazole-5-carboxamide], the pKi is 7.72.

In the case of `Cc1noc(C)c1-c1cc(NC(=O)c2ccccc2)ccc1OCCN1CCC1` [Compound 120, N-(4-(2-(azetidin-1-yl)ethoxy)-3-(3,5-dimethylisoxazol-4-yl)phenyl)benzamide], the pKi was 8.03.

Regarding `Cc1noc(C)c1-c1cc(NC(=O)Cc2ccccc2)ccc1OCCN1CCC1` [Compound 123, N-(4-(2-(azetidin-1-yl)ethoxy)-3-(3,5-dimethylisoxazol-4-yl)phenyl)-2-phenylacetamide], the pKi was 7.93.

Consider `COc1cccc(CC(=O)Nc2ccc(OCCN3CCC3)c(-c3c(C)noc3C)c2)c1` [Compound 124, N-(4-(2-(azetidin-1-yl)ethoxy)-3-(3,5-dimethylisoxazol-4-yl)phenyl)-2-(3-methoxyphenyl)acetamide], for which the pKi is 7.97.

`COc1ccc(CC(=O)Nc2ccc(OCCN3CCC3)c(-c3c(C)noc3C)c2)cc1` [Compound 126, N-(4-(2-(azetidin-1-yl)ethoxy)-3-(3,5-dimethylisoxazol-4-yl)phenyl)-2-(4-methoxyphenyl) acetamide]: the pKi was 8.28.

Regarding `Cc1ncsc1CC(=O)Nc1ccc(OCCN2CCC2)c(-c2c(C)noc2C)c1` [Compound 127, N-(4-(2-(azetidin-1-yl)ethoxy)-3-(3,5-dimethylisoxazol-4-yl)phenyl)-2-(4-methylthiazol-5-yl)acetamide], the negative logarithm of the Ki (pKi) was 8.07.

Take `Cc1noc(C)c1-c1cc(NC(=O)Cc2cncc(F)c2)ccc1OCCN1CCC1` [Compound 128, N-(4-(2-(azetidin-1-yl)ethoxy)-3-(3,5-dimethylisoxazol-4-yl)phenyl)-2-(5-fluoropyridin-3-yl)acetamide]: the negative-log Ki (pKi) was 7.84.

For the compound `Cc1noc(C)c1-c1cc(NC(=O)c2c(F)cnn2C)ccc1OCCN1CCC1` [Compound 130, N-(4-(2-(azetidin-1-yl)ethoxy)-3-(3,5-dimethylisoxazol-4-yl)phenyl)-4-fluoro-1-methyl-1H-pyrazole-5-carboxamide], the pKi was 7.89.

For the compound `CCOC1CC1C(=O)Nc1ccc(OCCN2CCC2)c(-c2c(C)noc2C)c1` (stereo not drawn) [Compound 131, N-(4-(2-(azetidin-1-yl)ethoxy)-3-(3,5-dimethylisoxazol-4-yl)phenyl)-2-ethoxycyclopropane-1-carboxamide], the pKi was 7.11.

Consider `Cc1noc(C)c1-c1cc(NC(=O)C2CC2)ccc1OC1CN(C)C1` [Compound 132, N-[3-(3,5-dimethylisoxazol-4-yl)-4-(1-methylazetidin-3-yl)oxy-phenyl]cyclopropanecarboxamide], for which the negative logarithm of the Ki (pKi) is 7.34.

`CCN1CC(Oc2ccc(NC(=O)C3CC3)cc2-c2c(C)noc2C)C1` [Compound 133, N-(3-(3,5-dimethylisoxazol-4-yl)-4-((1-ethylazetidin-3-yl)oxy)phenyl)cyclopropanecarboxamide]: the pKi is 7.29.

Turning to `Cc1noc(C)c1-c1cc(NC(=O)c2c(F)cnn2C)ccc1OCCN1CCOCC1` [Compound 134, N-[3-(3,5-dimethylisoxazol-4-yl)-4-(2-morpholinoethoxy)phenyl]-4-fluoro-2-methyl-pyrazole-3-carboxamide], the pKi was 8.23.

With `CCOC1CC1C(=O)Nc1ccc(OCCN2CCOCC2)c(-c2c(C)noc2C)c1` (stereo not drawn) [Compound 135, N-[3-(3,5-dimethylisoxazol-4-yl)-4-(2-morpholinoethoxy)phenyl]-2-ethoxy-cyclopropanecarboxamide], the negative logarithm of the Ki (pKi) was 7.70.

For the compound `Cc1noc(C)c1-c1cc(NC(=O)C2CC2)ccc1OCCN1CCOC(=O)CC1` [Compound 137, N-[3-(3,5-dimethylisoxazol-4-yl)-4-[2-(7-oxo-1,4-oxazepan-4-yl)ethoxy]phenyl]cyclopropanecarboxamide], the negative logarithm of the Ki (pKi) was 6.26.

Regarding `Cc1noc(C)c1-c1cc(NC(=O)C2CC2)ccc1OCCN1CCN2C(=O)CCC2C1` (stereo not drawn) [Compound 138, N-(3-(3,5-dimethylisoxazol-4-yl)-4-(2-(6-oxohexahydropyrrolo[1,2-a]pyrazin-2(1H)-yl)ethoxy)phenyl)cyclopropanecarboxamide], the negative logarithm of the Ki (pKi) is 7.61.

For the compound `Cc1noc(C)c1-c1cc(NC(=O)C2CC2)ccc1OCCN1CCC2(CC1)CNC2=O` [Compound 139, N-(3-(3,5-dimethylisoxazol-4-yl)-4-(2-(1-oxo-2,7-diazaspiro[3.5]nonan-7-yl)ethoxy)phenyl)cyclopropanecarboxamide], the negative-log Ki (pKi) is 6.91.

Turning to `Cc1noc(C)c1-c1cc(NC(=O)C2CC2)ccc1OCCN1CCC2(CC1)CC(=O)N2` [Compound 140, N-(3-(3,5-dimethylisoxazol-4-yl)-4-(2-(2-oxo-1,7-diazaspiro[3.5]nonan-7-yl)ethoxy)phenyl)cyclopropanecarboxamide], the negative-log Ki (pKi) was 6.64.

On to `Cc1noc(C)c1-c1cc(NC(=O)C2CC2)ccc1OCCN1CCC2(CCOC2=O)CC1` [Compound 142, N-(3-(3,5-dimethylisoxazol-4-yl)-4-(2-(1-oxo-2-oxa-8-azaspiro[4.5]decan-8-yl)ethoxy)phenyl)cyclopropanecarboxamide], for which the pKi is 7.17.
